These molecules were tested against Human immunodeficiency virus type 1 protease (Human immunodeficiency virus 1, UniProt Q72874) (assay: Compound was tested for the inhibition of HIV-1 protease by assaying the cleavage of a fluorescent peptide using HPLC).

Which Ki does the source give for `O=C1N[C@H](Cc2ccccc2)[C@@H](O)[C@H](O)[C@]23CC[C@H](CC2)N13` here?
Its Ki is 21000 nM.

`O=C1N(Cc2ccccc2)[C@H](Cc2ccccc2)[C@H](O)[C@H](O)[C@]23CC[C@H]([C@H](OCc4ccccc4)C2)N13` was tested. Which Ki did it give?
The Ki was 750 nM.

Which Ki does the source give for `O=C1N(Cc2ccc3[nH]ncc3c2)[C@H](Cc2ccccc2)[C@H](O)[C@H](O)[C@]23CC[C@H](CC2)N13` here?
The Ki was 2300 nM.

`O=C1N(Cc2ccccc2)[C@H](Cc2ccccc2)[C@H](O)[C@H](O)[C@]23CC[C@H](CC2)N13` was tested. Which Ki did it give?
Its Ki is 2400 nM.

How did the Ki turn out when `O=C1N(Cc2ccccc2)[C@H](Cc2ccccc2)[C@@H](O)[C@H](O)[C@]23CC[C@H](CC2)N13` was run?
Its Ki is 6300 nM.

`O=C1N(Cc2ccc3[nH]ncc3c2)[C@H](Cc2ccccc2)[C@H](O)[C@H](O)[C@]23CC[C@H]([C@H](OCc4ccccc4)C2)N13` was tested. Which Ki did it give?
Its Ki is 9 nM.

From ChEMBL document CHEMBL1130717, “Tricyclic ureas: a new class of HIV-1 protease inhibitors” (Bioorg Med Chem Lett, 1998)
